Assay results as given in US12312346B2, “Pyridopyrimidine compounds and methods of their use” (Tufts Medical Center, Inc., priority 2018, dated 2025).

Columns and labels:
[1] = system: human leukemia cell line PEER (with WT Notch); assay: Cell cycle (PI staining, S-G2-M cells), PEER; format: cell-based
Procedure: FIG. 3A Representative cell cycle profiles of human leukemia cell line PEER (with WT Notch) treated with a vehicle (V) (for palbociclib (PD) or compound GD), PD (0.5 μM), or compound GD at 0.05, 0.5, and 5 μM for 6 days.
FIG. 3B is a histogram summarizing the cell cycle distribution of the PEER cell line in FIG. 3A. Data shown are mean±S.D. (n=6); *P<0.05 vs its vehicle controls, t-test.
FIG. 3C is a chart showing the percentage of S-G2-M cells in FIG. 3B. […]
(§1) Table 2: Experimental Procedures: sensitivity to CDK6 kinase activity inhibition was tested by incubating different cell lines in the presence of CDK6 inhibitor GD007/PBS for either 24 hours for detecting the status of pRB-780 phosphorylation, or 5 days for determining the effect of GD007 on cell proliferation. (1) By immunoblotting (WB), we will detect phospho-pRB-S^780, one of the substrates of CDK6 kinase; (2) By using FACS analysis, we will stain treated cells with Propidium Iodide (PI), a commonly used fluorescent intercalator, to measure the subpopulation of cell cycle to reveal any impact of CDK6 inhibition on cell proliferation; (3) cell numbers will be counted using hemocytometer.

[2] = system: mouse WT SVFs; assay: Cell number, WT-SVFs; format: cell-based; details: 6 days; GD 0.1-10 μM
Procedure: FIG. 7A is a bar graph showing the cell numbers of WT-SVFs treated with LEE (10 μM) or compound GD at 0.1, 0.5, 1.0, 5.0, and 10 μM for 6 days. Data shown are mean±S.D. (n=6); *P<0.05 vs its vehicle control, t-test.
(§2) HCl salt of 6-acetyl-5-methyl-2-((4-(piperazin-1-ylmethyl)thiazol-2-yl)amino)pyrido[2,3-d]pyrimidin-7(8H)-one (Compound GD) prepared in Example 1 was examined for its inhibitory activity in cancer cell lines and WT and CDK6^−/− mouse embryonic fibroblasts (MEFs) and stromal vascular fractions (SVFs). MEFs and SVFs are enriched with mesenchymal stem cells (MSC) and pre-adipocytes which can differentiate into a variety of cell types, including adipocytes.

[3] = system: CDK6^−/− SVFs (KO-SVFs); assay: Cell number, KO-SVFs; format: cell-based, mouse; details: 6 days; GD 0.1-10 μM
Procedure: FIG. 7B is a bar graph showing the cell numbers of KO-SVFs treated with LEE (10 μM) or compound GD at 0.1, 0.5, 1.0, 5.0, and 10 μM for 6 days. Data shown are mean±S.D. (n=6); *P<0.05 vs its vehicle control, t-test.
as §2

[4] = system: phosphorylated pRB at SER-780 in U251 cells; assay: Immunoblot of phosphorylated pRB (SER-780), U251; format: cell-based
Procedure: FIG. 5B is an image of a representative immunoblot showing the levels of phosphorylated pRB at SER-780 in U251 cells following treatment of these cells with a vehicle, PD, or compound GD for 24 hours. Tubulin was used as loading control.
as §1

[5] = system: phosphorylated pRB at SER-780 in HPAC-1 cells; assay: Immunoblot of phosphorylated pRB (SER-780) and PI staining, HPAC-1; format: cell-based
Procedure: FIG. 5D is an image of a representative immunoblot showing the levels of phosphorylated pRB at SER-780 in HPAC-1 cells following treatment of these cells with a vehicle, PD, or compound GD for 24 hours. Tubulin was used as loading control.
as §1

**Q.** Which results are given for `CC(=O)c1c(C)c2cnc(Nc3nc(CN4CCNCC4)cs3)nc2[nH]c1=O` [Compound GD, 6-acetyl-5-methyl-2-((4-(piperazin-1-ylmethyl)thiazol-2-yl)amino)pyrido[2,3-d]pyrimidin-7(8H)-one]?
**A.** IC50 ([1]; Homo sapiens, 144 h, PEER, 6 days, read-out: IC50 (percentage of S-G2-M cells, growth inhibition)): ~1.3 µM; Compound GD Efficacy ([1]; Leukemic cells: PEER, PI Staining, and cell number counting): Efficacious; proliferation of mouse WT SVFs [2]: inhibited proliferation; proliferation of CDK6−/− SVFs [3]: little effect; Compound GD Efficacy ([4]; Brain Tumor: U251, WB: P-RB-780): Efficacious; pRB phosphorylation ([4]; glioblastoma cell line U251, 24 hours): inhibits pRB phosphorylation; Compound GD Efficacy ([5]; Pancreas Cancer: HPAC, WB and PI staining): Efficacious; pRB phosphorylation ([5]; pancreas adenocarcinoma (HPAC-1), 24 hours): inhibits pRB phosphorylation
